Data taken from PubChem BioAssay AID743334 (Broad Institute, 2014).
Activity calls are given as the source filed them.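 The calls were made as follows: active = curve reaches 40% rise within the top valid dose, in every run; inconclusive = runs give conflicting calls; inactive = opposite-direction activity, or every run inactive.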

Tested on: C2C12 myotubes ATP, CellTiter-Glo luminescence, 48 h
Assay: ATP change in C2C12 myotubes without statin, dose response, counter-screen for statin myotoxicity suppressor project, cell-based, no simvastatin, luminescence, dry powder (AID 743334)
Conditions: not given

For COc1ccc(S(=O)(=O)Nc2ccc3c(c2)CC(=O)N([C@H](C)CO)C[C@H](C)[C@@H](CN(C)Cc2ccc(Cl)c(Cl)c2)O3)cc1, which AC40 is on record?
The AC40 was > 19.5 µM (inactive).

With C[C@H](CO)N1C[C@H](C)[C@H](CN(C)CC2CCCCC2)Oc2ccc(NC(=O)CCCCCC(=O)Nc3ccccc3N)cc2CC1=O as the compound, how does the AC40 read?
The AC40 was > 19.5 µM (inactive).

For C[C@H](CO)N1C[C@H](C)[C@@H](CN(C)Cc2ccc(Cl)c(Cl)c2)Oc2ccc(NC(=O)C3CC3)cc2CC1=O, which AC40 is on record?
The AC40 was > 19.5 µM (inactive).

Which AC40 does the source give for C[C@H]1CN([C@@H](C)CO)C(=O)c2cc(NC(=O)Nc3cccc4ccccc34)ccc2O[C@H]1CN(C)Cc1ccc(C(=O)Nc2ccccc2N)cc1 here?
The AC40 was > 19.5 µM (inactive).

For COc1ccc(CN(C)C[C@H]2Oc3ccc(NS(=O)(=O)c4ccc(Cl)cc4)cc3CC(=O)N([C@@H](C)CO)C[C@@H]2C)cc1, which AC40 is on record?
Its AC40 is > 19.5 µM (inactive).

For C[C@@H]1CN([C@@H](C)CO)C(=O)c2cc(NC(=O)Nc3cccc4ccccc34)ccc2O[C@@H]1CN(C)Cc1ccc(C(=O)Nc2ccccc2N)cc1, which AC40 is on record?
Its AC40 is > 21 µM (inactive).

Which AC40 does the source give for C[C@H]1CN([C@@H](C)CO)C(=O)Cc2cc(NC(=O)CCCCCC(=O)Nc3ccccc3N)ccc2O[C@H]1CN(C)Cc1ccccc1 here?
The AC40 was 18 µM (inactive).

Which AC40 does the source give for N#C[C@@H]1[C@@H](c2ccc(-c3cccc(F)c3)cc2)[C@H](CO)N1C(=O)NC1CCCC1 here?
Its AC40 is > 21 µM (inactive).

For C[C@H]1CN([C@@H](C)CO)C(=O)c2cc(C#Cc3ccncc3)cnc2O[C@@H]1CN(C)CC1CCCC1, which AC40 is on record?
Its AC40 is > 19.5 µM (inactive).

Tested on: not listed separately
Assay: as above
Conditions: C2C12 myotubes ATP, CellTiter-Glo luminescence, 48 h; at 18 µM (top of the series)

With C[C@H](CO)N1C[C@H](C)[C@H](CN(C)Cc2ccc3c(c2)OCO3)Oc2ccc(NC(=O)CCCCCC(=O)Nc3ccccc3N)cc2CC1=O as the compound, how does the ATP level change, positive = increase read?
The ATP level change, positive = increase was 12% (inactive).

Same assay, conditions: C2C12 myotubes ATP, CellTiter-Glo luminescence, 48 h; at 19.5 µM (top of the series)

Which ATP level change, positive = increase does the source give for COc1ccc(S(=O)(=O)N(C)C[C@H]2Oc3c(NC(=O)Nc4ccccc4)cccc3C(=O)N([C@H](C)CO)C[C@H]2C)cc1 here?
The ATP level change, positive = increase was 7.7% (inactive).

With N#C[C@@H]1[C@@H](c2ccc(-c3ccc(F)cc3)cc2)[C@H](CO)N1C(=O)Cc1ccccc1 as the compound, how does the ATP level change, positive = increase read?
The ATP level change, positive = increase was 2.91% (inactive).

Same assay, conditions: C2C12 myotubes ATP, CellTiter-Glo luminescence, 48 h; active compounds read high

With C[C@@H]1CN([C@@H](C)CO)C(=O)Cc2cc(NC(=O)CCCCCC(=O)Nc3ccccc3N)ccc2O[C@@H]1CN(C)Cc1ccc(Oc2ccccc2)cc1 as the compound, how does the max activity read?
Its max activity is -25.1% (inactive).

With C[C@H](CO)N1C[C@H](C)[C@H](CN(C)Cc2ccc(C(=O)Nc3ccccc3N)cc2)Oc2ccc(NC(=O)Nc3ccc(F)cc3)cc2CC1=O as the compound, how does the max activity read?
Its max activity is -33.9% (inactive).

Which max activity does the source give for C[C@@H]1CN([C@H](C)CO)C(=O)Cc2cc(NC(=O)CCCCCC(=O)Nc3ccccc3N)ccc2O[C@@H]1CN(C)Cc1ccc(Oc2ccccc2)cc1 here?
Its max activity is -23.3% (inactive).

Which max activity does the source give for C[C@H]1CN([C@@H](C)CO)C(=O)Cc2cc(NC(=O)CCCCCC(=O)Nc3ccccc3N)ccc2O[C@@H]1CN(C)Cc1ccc(Oc2ccccc2)cc1 here?
Its max activity is -15.5% (inactive).

For C[C@@H]1CN([C@H](C)CO)C(=O)Cc2cc(NC(=O)CCCCCC(=O)Nc3ccccc3N)ccc2O[C@H]1CN(C)Cc1ccc(Oc2ccccc2)cc1, which max activity is on record?
The max activity was -0.786% (inactive).

Which max activity does the source give for N#C[C@@H]1[C@@H](c2ccc(-c3cccc(F)c3)cc2)[C@H](CO)N1C(=O)c1cccnc1 here?
Its max activity is 6.17% (inactive).

For COc1ccc(S(=O)(=O)Nc2ccc3c(c2)CC(=O)N([C@H](C)CO)C[C@@H](C)[C@H](CN(C)CC2CCCCC2)O3)cc1, which max activity is on record?
The max activity was -10.2% (inactive).

With C[C@H](CO)N1C[C@H](C)[C@H](CN(C)Cc2ccc(Oc3ccccc3)cc2)Oc2ccc(NC(=O)CCCCCC(=O)Nc3ccccc3N)cc2CC1=O as the compound, how does the max activity read?
Its max activity is -48.9% (inactive).

With N#C[C@@H]1[C@@H](c2ccc(-c3cccc(F)c3)cc2)[C@@H](CO)N1C(=O)NC1CCCC1 as the compound, how does the max activity read?
Its max activity is 2.16% (inactive).

Which max activity does the source give for C[C@H]1CN([C@@H](C)CO)C(=O)c2cc(NC(=O)Cc3cn(C)c4ccccc34)ccc2O[C@H]1CN(C)Cc1ccc(C(=O)Nc2ccccc2N)cc1 here?
Its max activity is 5.76% (inactive).
